Measured values as given in patent publication US4308278A, “Anorexigenic 4-[(3,4-dialkoxyphenyl)alkyl]-2-imidazolidinone derivatives” (Gyogyszerkutato Intezet, priority 1978, dated 1981).
Counter-ions that a name gives are not always drawn.

Experiments:
rats = conditions: oral, literature value (footnotes 2, 3); cited from earlier work
mice = conditions: oral, literature value (footnotes 1, 2, 5); cited from earlier work
acute toxicity in mice = conditions: mouse, in vivo
CFY rats [1] = assay: anorexigenic effect in starved CFY rats (feed consumption / body weight); assay type: in vivo, rat; conditions: for ED50: Rattus norvegicus, rats, starved 24 h, dose halving food consumption or body weight gain vs control, read-out: ED50 orally in rats; for ED50 / Therapeutic ratio: oral; for Therapeutic ratio: LD50 and ED50 in rats
Description: For studying the anorexigenic effect the following method was used. CFY rats were starved for 24 hours, then the substance was orally administered, and half an hour later the animals were allowed to feed ad libitum during 5 hours when the feed consumption was measured. The change in the body weight of animals and the amount of the consumed solid, granulated food or sugar milk or peeled potato, respectively, were determined.
*ED50 is the oral dose after administration of which, following a
period of 24 hours of starvation, the rats consume the half amount of foo
as compared to control, or the oral dose after the administration of whic
the body weight gain is a half of that of control.

[2] = acute oral toxicity in rats; conditions: rat, in vivo
CFY rats [3] = conditions: oral, literature value (footnotes 4, 5); cited from earlier work

In the case of CCNC(C)Cc1cccc(C(F)(F)F)c1 (racemic) [Fenfluramine, DL-N-ethyl-α-methyl-3-trifluoromethylbenzeneethanamine hydrochloride], the “Acute LD50 orally in rats” value (rats) is listed as 138 mg/kg, the “Acute LD50 orally in mice” value (mice) is listed as 170 to 290 mg/kg and the LD50 (acute toxicity in mice; ip) is listed as 100 mg/kg. For the same molecule, the ED50 (CFY rats [1]) was 7.5 mg/kg and the Therapeutic ratio (CFY rats [1]) was 20.3.
For CC(C)(N)Cc1ccc(Cl)cc1.Cl [Chlorphentermine, α,α-dimethyl-4-chlorobenzeneethanamine hydrochloride], the LD50 [2] is given as 375 mg/kg, the “ED50 orally in rats” value (CFY rats [3]) is given as 12.5 mg/kg and the “Acute LD50 orally in mice” value (mice) is given as 250 mg/kg. For the same molecule, the Therapeutic ratio (CFY rats [1]) was 30.0.
For CC(N)Cc1ccccc1 [D-Amphetamine, D-benzeneethanamine sulphate], the “Acute LD50 orally in rats” value (rats) is given as 38 mg/kg, the “Acute LD50 orally in mice” value (mice) is given as 60 mg/kg and the ED50 (CFY rats [1]) is given as 5 mg/kg. The Therapeutic ratio (CFY rats [1]) was 7.6.
With COc1ccc(CC2CNC(=O)N2)cc1OC1CCCC1 (stereo not drawn) [Ia, 4-[(3-cyclopentyloxy-4-methoxyphenyl)methyl]-2-imidazolidinone] the LD50 [2] was 760 mg/kg, the LD50 (acute toxicity in mice; ip) was 680 mg/kg and the LD50 (acute toxicity in mice; po) was 2050 mg/kg. The ED50 (CFY rats [1]) was 10.5 mg/kg, the “therapeutic ratio (comparison in words)” value (CFY rats [1]; compared with anorexigenic drugs introduced so far) was “more favourable than that of the best anorexigenic drugs introduced so far” and the anorexigenic effect (CFY rats [1]; in words) was “much more intense than that of the anorexigenic drugs introduced so far”. For the same molecule, the Therapeutic ratio (CFY rats [1]) was 72.5.
For OC1(c2ccc(Cl)cc2)c2ccccc2C2=NCCN21 (stereo not drawn) [Mazindol, 5-(4-chlorophenyl)-2,5-dihydro-3H-imidazo[2,1-a]isoindol-5-ol], the LD50 [2] is listed as 250 mg/kg, the “ED50 orally in rats” value (CFY rats [3]) is listed as 25.8 mg/kg and the LD50 (acute toxicity in mice; po) is listed as 106 mg/kg. For the same molecule, the Therapeutic ratio (CFY rats [1]) was 9.7.
